Experiments:
[1] = target: T1, Sestrin2/GATOR2 interaction (Homo sapiens, UniProt P58004); assay: Lysate-based (cell-free) Sestrin2/GATOR2 protein-protein interaction assay; format: binding; conditions: added to immunoprecipitated Sestrin2/GATOR2 complexes from amino acid-starved flag-WDR24 HEK293T cells, 10 minutes
T1 construct: endogenous in cells; host or cells: Flag-WDR24 293T (HEK293T) cells
T1 sequence (P58004 1-480): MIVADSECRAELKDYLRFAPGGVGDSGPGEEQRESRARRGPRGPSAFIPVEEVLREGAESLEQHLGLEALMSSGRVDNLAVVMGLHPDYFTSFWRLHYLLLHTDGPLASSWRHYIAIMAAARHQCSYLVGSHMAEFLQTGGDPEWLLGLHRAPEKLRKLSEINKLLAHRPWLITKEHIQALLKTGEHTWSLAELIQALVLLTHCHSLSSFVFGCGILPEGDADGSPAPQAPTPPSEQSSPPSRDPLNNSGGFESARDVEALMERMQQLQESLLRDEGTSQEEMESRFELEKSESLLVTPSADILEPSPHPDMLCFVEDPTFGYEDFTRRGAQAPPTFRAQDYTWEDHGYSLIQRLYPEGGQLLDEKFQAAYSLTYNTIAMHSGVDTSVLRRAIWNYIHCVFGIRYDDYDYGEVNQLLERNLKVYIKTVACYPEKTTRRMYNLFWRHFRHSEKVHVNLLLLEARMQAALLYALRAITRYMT
Description: Flag-WDR24 293T cells were washed and placed in amino acid-free RPMI for 50 minutes. Cells were then rinsed once with ice-cold PBS and immediately lysed with Triton lysis buffer. The cell lysates were cleared by centrifugation at 13,200 rpm at 4°C in a microcentrifuge for 10 minutes. The anti-FLAG immunoprecipitations were performed as described above. Immunoprecipitated proteins (IPs) were resuspended in cytosolic buffer (40 mM HEPES pH 7.4, 140 mM KCl, 10 mM NaCl, 2.5 mM MgCl2, 0.1% TritonX-100) containing vehicle, NV-5297 or leucine at the indicated doses for 10 minutes. After compound incubation, IPs were collected by centrifugation, denatured, resolved by SDS-PAGE, and analyzed by immunoblotting.
Next, Sestrin2/GATOR2 protein-protein interactions in response to NV-5297 were measured using cell-free assays and in vitro. For this, HEK293T cells stably expressing flag-WDR24, a component of GATOR2 [44], were used. The cell-free assays utilized Sestrin2/GATOR2 complexes immunoprecipitated from amino acid-starved cells with an anti-flag antibody.

mTORC1 pathway (pS6) = assay: pS6 immunoblot of tissues after one oral dose in C57BL/6 mice; format: in vivo; conditions: single oral 160 mg/kg
Description: Specific regions of the brain and heart were homogenized using a Next Advance Bullet Blender Storm in Lysis Buffer (Cell lysis buffer: 1% Triton X-100, 50 mM HEPES pH 7.4, 100 mM sodium chloride, 2 mM EDTA, 10 mM Beta-glycerophosphate, 10 mM Sodium pyrophosphate, and 1 protease inhibitor) at 4°C. Lysates were cleared by centrifugation at 13,200 rpm at 4°C for 10 minutes. Equal amounts of total protein from each sample were denatured and, resolved by SDS-PAGE. Membranes were imaged using the LI-COR imaging system. Proteins levels are normalized to tubulin, actin or GAPDH levels and further normalized to vehicle treated mice for each tissue.
Fig 1 NV-5297 is a leucine analog activating the mTORC1 pathway in the brain and peripheral tissues. (A) NV-5297 chemical structure. Representative immunoblots of phosphorylated S6 (^S240/244pS6) from homogenized tissues from C57BL/6 mice orally dosed once with NV-5297 (160 mg/kg) and sacrificed 1 hour later (B) and quantification of the immunoblots normalized to loading controls and vehicle treated mice (n = 10 per treatment) (C). […]

N171-82Q HD mice = assay: Chronic 6-week treatment: weight, forelimb grip strength, accelerating rotarod; format: in vivo; conditions: N171-82Q mice
Description: The initial trial consisted in one week of oral dosing in 12 weeks old N171-82Q males. The chronic 6 weeks treatment (Veh n = 15, NV-5297 n = 14) took place from 6 to 12 weeks of age. The cardiac stress took place in animals from 10 to 12 weeks of age (Veh-Sal n = 9, NV-Sal n = 10, Veh-Iso n = 16, NV-Iso n = 11).
The accelerated rotarod (model 47600; Ugo Basile, Comerio, Italy) test was carried out as previously described. Mice were tested at 5 (baseline) and 12 weeks of age. Briefly, mice were habituated to the test room for an hour. On the first day, mice were trained on the rotarod for 5 minutes at 4 rpm. Mice were then tested in three trials per day (with at least 30 minutes of rest between trials) for four consecutive days. For each trial, the rotarod accelerated from 4 to 40 rpm over 4 minutes with constant speed at 40 rpm for an additional minute. Trials were stopped at 300 seconds. Latency to fall (or two consecutive rotations without running) was recorded for every trial. For grip strength, mice were tested at 5 (baseline), 9 and 12 weeks of age. Mice were habituated to the test room for 1 hour. The mouse held a pull bar with both paws and are then pulled horizontally until they let go of the pull bar. Forelimb grip strength at the peak tension was measured five times per mice (Columbus Instrument). There were at least 30 minutes of rest between trials. The grip strength is calculated as the average of the four highest grip strength recorded.

[2] = oral 160 mg/kg daily for 6 weeks

CC(C)(C[C@H](N)C(=O)O)C(F)(F)F [NV-5297, (S)-2-amino-5,5,5-trifluoro-4,4-dimethylpentanoic acid]
Sestrin2/GATOR2 interaction (GATOR2-associated Sestrin2) [1]: disrupted the Sestrin2/GATOR2 interaction in a dose-dependent manner
pS6 in brain regions relative to controls (mTORC1 pathway (pS6); sacrificed 1 hour later): increased pS6 in all regions sampled
pS6 in peripheral tissues relative to vehicle (mTORC1 pathway (pS6); tissues collected 1 hour later): increased pS6
accelerating rotarod motor performance over 4-day trial (N171-82Q HD mice; 12 weeks of age, oral 160 mg/kg daily for 6 weeks): improved rotarod motor performance
adverse effects to the treatment (N171-82Q HD mice; NV-5297 treatment, response to reviewers): No mice had explicit adverse effects
forelimb grip strength (N171-82Q HD mice; [2]): did not impact
weight loss (N171-82Q HD mice; [2]): did not impact
